# Measurements: patent publication US11192890B2, “FGFR kinase inhibitors and pharmaceutical uses” (AUCKLAND UNISERVICES LIMITED, priority 2017, dated 2021)
# “And” between values parts separate entries of the source, which are not always exact repeats. Equal values may be shown once. Read-outs that look alike come from different tables or passages of the source.
# Columns and labels:
# H520 cells = test: Oxic and anoxic anti-proliferative activity of the prodrugs
# [1] = tested on: FGFR1 in H520 cells (phospho-ERK1/2); test: Drug washout Western blot assay, H520 cells; type: cell-based; conditions: H520; for reversible or irreversible inhibition of FGFR1 in cells / concentration required to suppress FGFR1 signalling through phospho-ERK1/2: 2 hours exposure; for reversible or irreversible inhibition of FGFR1 in cells: 100, 300 and 600 nM, with and without washout; for concentration required to suppress FGFR1 signalling through phospho-ERK1/2: tested at 100, 300 and 600 nM; for phospho-ERK1/2 after extensive drug washout: 30 min, washout prior to FGF-stimulation
# SW780 cells = test: Oxic and anoxic anti-proliferative activity of the prodrugs; type: cell-based; conditions: Homo sapiens, SW780; oxic conditions; read-out: Cellular Anti-proliferative IC50, SW780, Oxic
# SUM52 cells = test: as above; conditions: for Hypoxic Cytotoxicity Ratio (HCR), SUM52: ratio of oxic and anoxic IC50
# FGFR4 = target: T1, FGFR4 (Homo sapiens, UniProt P22455); test: Isolated enzyme FRET-based Z-Lyte kinase inhibition assay; type: biochemical; conditions: means from 3 independent experiments; read-out: Isolate Enzyme Inhibition IC50, FGFR4
# T1 construct: purchased Invitrogen
# Protocol: (§1) FGFR1-4 and the Z-Lyte Kinase Assay Kit were purchased from Invitrogen. The concentration gradients from 5.1×10^−11 to 1.0×10^−6 mol/L were used for all the test compounds. The experiments were performed according to the instructions of the manufacturer.
# (§2) FGFR1-4 isolated enzyme activity was determined using the FRET-based Z-Lyte kinase inhibition assay. The data are the means from 3 independent experiments.
# FGFR3 = target: T2, FGFR3 (Homo sapiens, UniProt P22607); test: as above; type: biochemical; conditions: means from 3 independent experiments; read-out: Isolate Enzyme Inhibition IC50, FGFR3
# T2 construct: purchased Invitrogen
# Protocol: as §1, §2
# [2] = tested on: FGFR2 in SUM52 cells (phospho-ERK1/2); test: Drug washout Western blot assay, SUM52 cells; type: cell-based; conditions: SUM52, 30 min, washout prior to FGF-stimulation
# Protocol: Cells were seeded on the day prior to drug treatment (1 million cells/well; 6-well plate).
# Drug stocks were prepared in media using 1 mM or 10 mM DMSO stock solutions. Media was aspirated from each well and replaced with 2 ml of drug-free media for control wells or 2 ml of diluted drug for treated wells. Cells were exposed to drug for 30 min. Recombinant FGF (50 ng/well) was added to each well 15 minutes prior to the end of the drug exposure and protein was extracted as below.
# Cells were exposed to drug for 30 min as above. Media was aspirated and each well was washed with 5 ml drug-free media. The wash media was aspirated and replaced with 2 ml drug-free media and cells incubated for a further 30 minutes, after which the wash protocol was repeated. Cells were incubated for a further 90 minutes in drug-free media. Recombinant FGF (50 ng/well) was added to each well 15 minutes prior to the end of the drug-free incubation and protein was extracted as below.
# Cell lysates were prepared in 250 μL of RIPA lysis buffer containing protease inhibitor (1:100). After incubation on ice (30 min) and centrifugation (13,000 rpm, 5 min, 4° C.) the supernatants containing the proteins were stored (−20° C.) until required. Bicinchoninic acid (BCA) assay was used to determine the protein concentration of individual cell lysate samples.
# [3] = tested on: FGFR3 in SW780 cells (phospho-ERK1/2); test: Drug washout Western blot assay, SW780 cells; type: cell-based; conditions: SW780, 30 min; for inhibition of phosphorylation of ERK1/2, no washout: then FGF-stimulation; for phospho-ERK1/2 after extensive drug washout: washout prior to FGF-stimulation
# [4] = tested on: FGFR2-amplified SUM52 breast cancer cells; test: Cell proliferation assay (SRB); type: cell-based; conditions: SUM52, 120 h, read-out: Cellular Anti-proliferative IC50, SUM52, 5 days drug exposure
# [5] = tested on: FGFR3-amplified SW780 bladder cancer cells; test: Cell proliferation assay (SRB); conditions: Homo sapiens, SW780, 120 h, read-out: Cellular Anti-proliferative IC50, SW780, 5 days drug exposure
# FGFR2 = target: T3, FGFR2 (Homo sapiens, UniProt P21802); test: Isolated enzyme FRET-based Z-Lyte kinase inhibition assay; type: biochemical; conditions: means from 3 independent experiments; read-out: Isolate Enzyme Inhibition IC50, FGFR2
# T3 construct: purchased Invitrogen
# Protocol: as §1, §2
# [6] = read-out: Cellular Anti-proliferative IC50, H520, Oxic, oxic conditions
# [7] = read-out: Cellular Anti-proliferative IC50, SUM52, Anoxic, 4 hours of anoxia, remainder of assay oxic
# [8] = read-out: Cellular Anti-proliferative IC50, SUM52, Oxic, oxic conditions
# T1 sequence (P22455 22-802): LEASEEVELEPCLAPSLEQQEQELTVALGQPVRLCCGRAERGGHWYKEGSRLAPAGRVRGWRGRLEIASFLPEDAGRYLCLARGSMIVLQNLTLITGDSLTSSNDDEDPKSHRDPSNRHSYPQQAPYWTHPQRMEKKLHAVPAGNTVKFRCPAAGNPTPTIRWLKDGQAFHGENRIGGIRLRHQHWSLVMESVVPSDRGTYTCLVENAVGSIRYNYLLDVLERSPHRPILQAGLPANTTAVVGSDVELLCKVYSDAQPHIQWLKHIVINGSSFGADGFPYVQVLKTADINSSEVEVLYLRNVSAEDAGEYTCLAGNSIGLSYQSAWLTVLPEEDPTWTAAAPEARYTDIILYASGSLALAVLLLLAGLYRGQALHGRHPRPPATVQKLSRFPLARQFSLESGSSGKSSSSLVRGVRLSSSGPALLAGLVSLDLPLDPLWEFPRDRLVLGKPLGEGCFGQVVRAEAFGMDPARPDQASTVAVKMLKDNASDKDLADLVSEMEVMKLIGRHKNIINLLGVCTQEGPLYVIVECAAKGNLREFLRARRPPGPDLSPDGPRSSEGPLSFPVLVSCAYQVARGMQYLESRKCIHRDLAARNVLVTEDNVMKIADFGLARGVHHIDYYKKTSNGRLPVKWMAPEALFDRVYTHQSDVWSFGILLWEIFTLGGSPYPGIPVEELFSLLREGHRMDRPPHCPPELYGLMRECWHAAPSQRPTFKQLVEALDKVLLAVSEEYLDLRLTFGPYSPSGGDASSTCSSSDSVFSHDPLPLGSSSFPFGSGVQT
# T2 sequence (P22607 23-806): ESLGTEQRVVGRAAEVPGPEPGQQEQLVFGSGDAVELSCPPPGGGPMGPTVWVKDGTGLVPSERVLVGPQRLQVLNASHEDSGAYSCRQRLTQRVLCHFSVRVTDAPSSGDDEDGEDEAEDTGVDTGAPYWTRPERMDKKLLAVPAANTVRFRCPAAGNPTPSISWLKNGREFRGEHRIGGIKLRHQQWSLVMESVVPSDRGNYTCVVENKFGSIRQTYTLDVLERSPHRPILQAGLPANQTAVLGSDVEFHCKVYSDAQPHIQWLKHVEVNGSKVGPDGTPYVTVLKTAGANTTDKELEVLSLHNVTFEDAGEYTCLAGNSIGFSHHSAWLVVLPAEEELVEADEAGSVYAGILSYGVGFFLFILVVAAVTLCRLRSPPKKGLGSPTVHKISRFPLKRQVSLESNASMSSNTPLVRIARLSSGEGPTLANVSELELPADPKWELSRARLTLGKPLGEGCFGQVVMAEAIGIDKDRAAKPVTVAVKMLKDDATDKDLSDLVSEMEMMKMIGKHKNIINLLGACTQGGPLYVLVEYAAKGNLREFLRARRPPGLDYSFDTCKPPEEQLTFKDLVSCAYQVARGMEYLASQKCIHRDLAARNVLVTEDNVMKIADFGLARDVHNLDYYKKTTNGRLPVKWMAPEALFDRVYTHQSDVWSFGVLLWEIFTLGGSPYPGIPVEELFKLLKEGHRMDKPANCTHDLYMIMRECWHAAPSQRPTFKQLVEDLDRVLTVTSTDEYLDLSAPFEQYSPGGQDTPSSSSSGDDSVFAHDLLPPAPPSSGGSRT
# T3 sequence (P21802 22-821): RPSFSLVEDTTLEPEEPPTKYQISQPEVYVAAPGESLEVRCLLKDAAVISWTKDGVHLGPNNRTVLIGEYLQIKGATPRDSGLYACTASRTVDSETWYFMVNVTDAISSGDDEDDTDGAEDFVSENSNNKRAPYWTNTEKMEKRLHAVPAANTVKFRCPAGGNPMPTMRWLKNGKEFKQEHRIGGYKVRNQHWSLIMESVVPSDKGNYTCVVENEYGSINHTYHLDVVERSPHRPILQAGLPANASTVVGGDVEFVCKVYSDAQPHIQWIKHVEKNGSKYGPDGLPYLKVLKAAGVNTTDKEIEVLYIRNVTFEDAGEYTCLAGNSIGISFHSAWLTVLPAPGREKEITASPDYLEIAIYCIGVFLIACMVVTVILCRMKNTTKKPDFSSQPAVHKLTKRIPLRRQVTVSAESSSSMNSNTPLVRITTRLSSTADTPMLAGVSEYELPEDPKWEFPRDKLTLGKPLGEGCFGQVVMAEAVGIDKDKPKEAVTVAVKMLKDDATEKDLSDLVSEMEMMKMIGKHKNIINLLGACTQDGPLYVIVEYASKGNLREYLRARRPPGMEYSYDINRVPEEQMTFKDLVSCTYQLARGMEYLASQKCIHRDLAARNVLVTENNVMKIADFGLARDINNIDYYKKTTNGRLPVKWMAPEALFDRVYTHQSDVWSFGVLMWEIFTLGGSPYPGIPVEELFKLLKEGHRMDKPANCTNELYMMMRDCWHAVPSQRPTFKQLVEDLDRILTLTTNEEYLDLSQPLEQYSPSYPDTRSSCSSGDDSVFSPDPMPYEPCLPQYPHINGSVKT
smiles,measurement,setting,value
"COc1cc(OC)c(Cl)c(N2Cc3cnc(Nc4ccc(F)cc4)nc3N(C3CCN(C(=O)/C=C/C[N+](C)(C)Cc4c([N+](=O)[O-])ncn4C)CC3)C2=O)c1Cl.O=C([O-])C(F)(F)F [Compound 205, (E)-4-(4-(3-(2,6-dichloro-3,5-dimethoxyphenyl)-7-((4-fluorophenyl)amino)-2-oxo-3,4-dihydropyrimido[4,5-d]pyrimidin-1(2H)-yl)piperidin-1-yl)-N,N-dimethyl-N-((1-methyl-4-nitro-1H-imidazol-5-yl)methyl)-4-oxobut-2-en-1-aminium 2,2,2-trifluoroacetate]",melting point,,162 to 165 °C
same,IC50,H520 cells; [6],668 nM
same,reversible or irreversible inhibition of FGFR1 in cells,[1],reversible inhibitors
same,concentration required to suppress FGFR1 signalling through phospho-ERK1/2,[1],> 300 nM
same,IC50,SW780 cells,1470 nM
same,"Hypoxic Cytotoxicity Ratio (HCR), SUM52",SUM52 cells,6
same,IC50,SUM52 cells; [7],4 nM
same,IC50,SUM52 cells; [8],23 nM
"COc1cc(OC)c(Cl)c(N2Cc3cnc(NC(C)C)nc3N([C@H]3CCN(C(=O)/C=C/C[N+](C)(C)Cc4c([N+](=O)[O-])ncn4C)C3)C2=O)c1Cl.[Br-] [Compound 201, (S,E)-4-(3-(3-(2,6-dichloro-3,5-dimethoxyphenyl)-7-(isopropylamino)-2-oxo-3,4-dihydropyrimido[4,5-d]pyrimidin-1(2H)-yl)pyrrolidin-1-yl)-N,N-dimethyl-N-((1-methyl-4-nitro-1H-imidazol-5-yl)methyl)-4-oxobut-2-en-1-aminium bromide]",melting point,,184 to 187 °C
same,IC50,H520 cells; [6],902 nM
same,reversible or irreversible inhibition of FGFR1 in cells,[1],reversible inhibitors
same,IC50,SW780 cells,1990 nM
same,"Hypoxic Cytotoxicity Ratio (HCR), SUM52",SUM52 cells,16
same,IC50,SUM52 cells; [7],38 nM
same,IC50,SUM52 cells; [8],612 nM
"COc1cc(Nc2ncc3c(n2)N(C2CCN(C(=O)/C=C/CN(C)C)CC2)C(=O)N(c2c(Cl)c(OC)cc(OC)c2Cl)C3)ccc1F [Compound 118, (E)-3-(2,6-dichloro-3,5-dimethoxyphenyl)-1-(1-(4-(dimethylamino)but-2-enoyl)piperidin-4-yl)-7-((4-fluoro-3-methoxyphenyl)amino)-3,4-dihydropyrimido[4,5-d] pyrimidin-2(1H)-one]",IC50,FGFR4,< 100 nM and 9.6 nM
same,IC50,FGFR3,2.4 nM
"COc1cc(OC)cc(N2Cc3cnc(Nc4ccc(N5CCOCC5)cc4)nc3N(C3CCN(C(=O)/C=C/C[N+](C)(C)Cc4c([N+](=O)[O-])ncn4C)CC3)C2=O)c1.[Br-] [Compound 220, (E)-4-(4-(3-(3,5-dimethoxyphenyl)-7-((4-morpholinophenyl)amino)-2-oxo-3,4-dihydropyrimido[4,5-d]pyrimidin-1(2H)-yl)piperidin-1-yl)-N,N-dimethyl-N-((1-methyl-4-nitro-1H-imidazol-5-yl)methyl)-4-oxobut-2-en-1-aminium bromide]",melting point,,192 to 195 °C
same,"Hypoxic Cytotoxicity Ratio (HCR), SUM52",SUM52 cells,48
same,IC50,SUM52 cells; [7],36 nM
same,IC50,SUM52 cells; [8],1720 nM
"CCN(CC)CCCCNc1ncc2cc(-c3cc(OC)cc(OC)c3)c(NC(=O)NC(C)(C)C)nc2n1 [PD173074, reference compound]",phospho-ERK1/2 after extensive drug washout,[2]; 100 nM,restoration
same,phospho-ERK1/2 after extensive drug washout,[2]; 1000 nM,restoration
same,"inhibition of phosphorylation of ERK1/2, no washout",[3]; 100 nM,less effective
same,phospho-ERK1/2 after extensive drug washout,[3]; 100 nM,restoration
same,"inhibition of phosphorylation of ERK1/2, no washout",[3]; 1000 nM,complete inhibition
same,phospho-ERK1/2 after extensive drug washout,[3]; 1000 nM,restoration
same,phospho-ERK1/2 after extensive drug washout,[1]; 100 nM,restoration
same,phospho-ERK1/2 after extensive drug washout,[1]; 1000 nM,restoration
same,reversible or irreversible inhibition of FGFR1 in cells,[1],potent reversible inhibitor
same,concentration required to suppress FGFR1 signalling through phospho-ERK1/2,[1],≤ 100 nM
same,IC50,[4],12 nM
same,IC50,[5],84 nM
"COc1cc(OC)c(Cl)c(N2Cc3cnc(NC4CCOCC4)nc3N(C3CCN(C(=O)/C=C/C[N+](C)(C)Cc4c([N+](=O)[O-])ncn4C)CC3)C2=O)c1Cl.O=C([O-])C(F)(F)F [Compound 203, (E)-4-(4-(3-(2,6-dichloro-3,5-dimethoxyphenyl)-2-oxo-7-((tetrahydro-2H-pyran-4-yl)amino)-3,4-dihydropyrimido[4,5-d]pyrimidin-1(2H)-yl)piperidin-1-yl)-N,N-dimethyl-N-((1-methyl-4-nitro-1H-imidazol-5-yl)methyl)-4-oxobut-2-en-1-aminium 2,2,2-trifluoroacetate]",melting point,,157 to 160 °C
same,"Hypoxic Cytotoxicity Ratio (HCR), SUM52",SUM52 cells,26
same,IC50,SUM52 cells; [7],37 nM
same,IC50,SUM52 cells; [8],961 nM
"COc1cc(OC)c(Cl)c(-c2cc3cnc(NC(C)C)cc3n(C3CCN(C(=O)/C=C/C[N+](C)(C)Cc4c([N+](=O)[O-])ncn4C)CC3)c2=O)c1Cl.[Br-] [Compound 215, (E)-4-(4-(3-(2,6-dichloro-3,5-dimethoxyphenyl)-7-(isopropylamino)-2-oxo-1,6-naphthyridin-1(2H)-yl)piperidin-1-yl)-N,N-dimethyl-N-((1-methyl-4-nitro-1H-imidazol-5-yl)methyl)-4-oxobut-2-en-1-aminium bromide]",melting point,,202 to 205 °C
same,"Hypoxic Cytotoxicity Ratio (HCR), H520",H520 cells; ratio of oxic and anoxic IC50,19
same,IC50,"H520 cells; read-out: Cellular Anti-proliferative IC50, H520, Anoxic, 4 hours of anoxia, remainder of assay oxic",209 nM
same,IC50,H520 cells; [6],4020 nM
same,IC50,SW780 cells,3500 nM
same,"Hypoxic Cytotoxicity Ratio (HCR), SUM52",SUM52 cells,106
same,IC50,SUM52 cells; [7],11 nM
same,IC50,SUM52 cells; [8],1190 nM
"COc1cc(OC)c(Cl)c(N2Cc3cnc(Nc4ccc(N5CCOCC5)cc4)nc3N(C3CCN(C(=O)/C=C/C[N+](C)(C)Cc4c([N+](=O)[O-])ncn4C)CC3)C2=O)c1.[Br-] [Compound 219, (E)-4-(4-(3-(2-chloro-3,5-dimethoxyphenyl)-7-((4-morpholinophenyl)amino)-2-oxo-3,4-dihydropyrimido[4,5-d]pyrimidin-1(2H)-yl)piperidin-1-yl)-N,N-dimethyl-N-((1-methyl-4-nitro-1H-imidazol-5-yl)methyl)-4-oxobut-2-en-1-aminium bromide]",melting point,,241 to 244 °C
same,"Hypoxic Cytotoxicity Ratio (HCR), SUM52",SUM52 cells,22
same,IC50,SUM52 cells; [7],2 nM
same,IC50,SUM52 cells; [8],52 nM
"CNc1ncc2c(n1)N(CCCNC(=O)/C=C/CN(C)C)C(=O)N(c1c(Cl)c(OC)cc(OC)c1Cl)C2 [Compound 125, (E)-N-(3-(3-(2,6-dichloro-3,5-dimethoxyphenyl)-7-(methylamino)-2-oxo-3,4-dihydropyrimido[4,5-d]pyrimidin-1(2H)-yl)propyl)-4-(dimethylamino)but-2-enamide]",IC50,FGFR4,> 1000 nM
same,IC50,FGFR3,51 nM
same,IC50,FGFR2,6.5 nM
